Data published in PubChem BioAssay (NCI).
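Step 1: Grow cells in 96-well plates. Step 2: Expose to compound for 48 hours at 5 concentrations. Step 3: Interpolate endpoints linearly; if unreached, use highest concentration. GI50 marks 50% less growth. At the TGI there is no net growth.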

How the values were obtained:
Experiment in all cases: inhibition of tumour cell growth, NCI panel, 48 h
SK-MEL-5 melanoma = tested on: SK-MEL-5 melanoma
UACC-62 melanoma = tested on: UACC-62 melanoma
EKVX NSCLC = tested on: EKVX NSCLC
MCF7 breast = tested on: MCF7 breast
HOP-92 NSCLC = tested on: HOP-92 NSCLC
SN12C renal = tested on: SN12C renal
HL-60(TB) leukemia = tested on: HL-60(TB) leukemia
PC-3 prostate = tested on: PC-3 prostate
HOP-62 NSCLC = tested on: HOP-62 NSCLC
NCI-H23 lung = tested on: NCI-H23 lung
NCI-H522 lung = tested on: NCI-H522 lung
OVCAR-4 ovarian = tested on: OVCAR-4 ovarian
UACC-257 melanoma = tested on: UACC-257 melanoma
SK-OV-3 ovarian = tested on: SK-OV-3 ovarian
SK-MEL-28 melanoma = tested on: SK-MEL-28 melanoma
RXF 393 renal = tested on: RXF 393 renal
RPMI-8226 leukemia = tested on: RPMI-8226 leukemia
U251 CNS = tested on: U251 CNS
OVCAR-3 ovarian = tested on: OVCAR-3 ovarian
LOX IMVI melanoma = tested on: LOX IMVI melanoma
IGROV1 ovarian = tested on: IGROV1 ovarian
A498 renal = tested on: A498 renal
SW-620 colon = tested on: SW-620 colon
DU-145 prostate = tested on: DU-145 prostate
HCC-2998 colon = tested on: HCC-2998 colon
NCI-H460 lung = tested on: NCI-H460 lung
OVCAR-8 ovarian = tested on: OVCAR-8 ovarian
SF-268 CNS = tested on: SF-268 CNS
COLO 205 colon = tested on: COLO 205 colon
MDA-MB-435 = tested on: MDA-MB-435
SNB-19 CNS = tested on: SNB-19 CNS
K-562 leukemia = tested on: K-562 leukemia
MALME-3M melanoma = tested on: MALME-3M melanoma
HS 578T breast = tested on: HS 578T breast
SF-539 CNS = tested on: SF-539 CNS
HCT-116 colon = tested on: HCT-116 colon
SR leukemia = tested on: SR leukemia
MDA-MB-468 breast = tested on: MDA-MB-468 breast
NCI/ADR-RES ovarian = tested on: NCI/ADR-RES ovarian
OVCAR-5 ovarian = tested on: OVCAR-5 ovarian
HCT-15 colon = tested on: HCT-15 colon
M14 melanoma = tested on: M14 melanoma
HT29 colon = tested on: HT29 colon
NCI-H226 lung = tested on: NCI-H226 lung
786-0 renal = tested on: 786-0 renal
UO-31 renal = tested on: UO-31 renal
A549 NSCLC = tested on: A549 NSCLC
SK-MEL-2 melanoma = tested on: SK-MEL-2 melanoma
ACHN renal = tested on: ACHN renal
KM12 colon = tested on: KM12 colon
MOLT-4 leukemia = tested on: MOLT-4 leukemia
CCRF-CEM leukemia = tested on: CCRF-CEM leukemia
SF-295 CNS = tested on: SF-295 CNS
BT-549 breast = tested on: BT-549 breast
T-47D breast = tested on: T-47D breast
MDA-MB-231 breast = tested on: MDA-MB-231 breast
SNB-75 CNS = tested on: SNB-75 CNS
TK-10 renal = tested on: TK-10 renal
CAKI-1 renal = tested on: CAKI-1 renal

COc1ccc(C2(SCCNCc3cc(N(C)C)ccn3)c3ccccc3C=Cc3ccccc32)cc1
GI50 (SK-MEL-5 melanoma): 319 nM
TGI (SK-MEL-5 melanoma): 11800 nM
GI50 (UACC-62 melanoma): 460 nM
TGI (UACC-62 melanoma): 17700 nM
GI50 (EKVX NSCLC): 382 nM
TGI (EKVX NSCLC): 19400 nM
GI50 (MCF7 breast): 40 nM
TGI (MCF7 breast): 13200 nM
GI50 (HOP-92 NSCLC): 1310 nM
TGI (HOP-92 NSCLC): 6250 nM
GI50 (SN12C renal): 290 nM
TGI (SN12C renal): 15200 nM
GI50 (HL-60(TB) leukemia): 62.3 nM
TGI (HL-60(TB) leukemia): 13700 nM
GI50 (PC-3 prostate): 395 nM
TGI (PC-3 prostate): 6060 nM
GI50 (HOP-62 NSCLC): 528 nM
TGI (HOP-62 NSCLC): 17900 nM
GI50 (NCI-H23 lung): 463 nM
TGI (NCI-H23 lung): 13900 nM
GI50 (NCI-H522 lung): 90 nM
TGI (NCI-H522 lung): 455 nM
GI50 (OVCAR-4 ovarian): 5150 nM
TGI (OVCAR-4 ovarian): 22000 nM
GI50 (UACC-257 melanoma): 10800 nM
TGI (UACC-257 melanoma): 23900 nM
GI50 (SK-OV-3 ovarian): 497 nM
TGI (SK-OV-3 ovarian): 13900 nM
GI50 (SK-MEL-28 melanoma): 5290 nM
TGI (SK-MEL-28 melanoma): 21200 nM
GI50 (RXF 393 renal): 283 nM
TGI (RXF 393 renal): 3390 nM
GI50 (RPMI-8226 leukemia): 124 nM
TGI (RPMI-8226 leukemia): > 49000 nM
GI50 (U251 CNS): 62 nM
TGI (U251 CNS): 12100 nM
GI50 (OVCAR-3 ovarian): 342 nM
TGI (OVCAR-3 ovarian): 12000 nM
GI50 (LOX IMVI melanoma): 557 nM
TGI (LOX IMVI melanoma): 12300 nM
GI50 (IGROV1 ovarian): 459 nM
TGI (IGROV1 ovarian): 19200 nM
GI50 (A498 renal): 11500 nM
TGI (A498 renal): 24900 nM
GI50 (SW-620 colon): 74.6 nM
TGI (SW-620 colon): 12500 nM
GI50 (DU-145 prostate): 335 nM
TGI (DU-145 prostate): 3630 nM
GI50 (HCC-2998 colon): 93.2 nM
TGI (HCC-2998 colon): 527 nM
GI50 (NCI-H460 lung): 281 nM
TGI (NCI-H460 lung): 11200 nM
GI50 (OVCAR-8 ovarian): 238 nM
TGI (OVCAR-8 ovarian): 15700 nM
GI50 (SF-268 CNS): 717 nM
TGI (SF-268 CNS): 18500 nM
GI50 (COLO 205 colon): 169 nM
TGI (COLO 205 colon): 521 nM
GI50 (MDA-MB-435): 25.3 nM
TGI (MDA-MB-435): 63.9 nM
GI50 (SNB-19 CNS): 534 nM
TGI (SNB-19 CNS): 19100 nM
GI50 (K-562 leukemia): 40.7 nM
TGI (K-562 leukemia): 17400 nM
GI50 (MALME-3M melanoma): 514 nM
TGI (MALME-3M melanoma): 15800 nM
GI50 (HS 578T breast): 204 nM
TGI (HS 578T breast): 1770 nM
GI50 (SF-539 CNS): 227 nM
TGI (SF-539 CNS): 594 nM
GI50 (HCT-116 colon): 40.4 nM
TGI (HCT-116 colon): 11600 nM
GI50 (SR leukemia): 57 nM
TGI (SR leukemia): > 33200 nM
GI50 (MDA-MB-468 breast): 50.9 nM
TGI (MDA-MB-468 breast): 388 nM
GI50 (NCI/ADR-RES ovarian): 205 nM
TGI (NCI/ADR-RES ovarian): 513 nM
GI50 (OVCAR-5 ovarian): 364 nM
TGI (OVCAR-5 ovarian): 12500 nM
GI50 (HCT-15 colon): 51 nM
TGI (HCT-15 colon): 13500 nM
GI50 (M14 melanoma): 34.7 nM
TGI (M14 melanoma): 621 nM
GI50 (HT29 colon): 337 nM
TGI (HT29 colon): 7000 nM
GI50 (NCI-H226 lung): 4800 nM
TGI (NCI-H226 lung): 19200 nM
GI50 (786-0 renal): 873 nM
TGI (786-0 renal): 17200 nM
GI50 (UO-31 renal): 1760 nM
TGI (UO-31 renal): 17800 nM
GI50 (A549 NSCLC): 147 nM
TGI (A549 NSCLC): 16800 nM
GI50 (SK-MEL-2 melanoma): 252 nM
TGI (SK-MEL-2 melanoma): 724 nM
GI50 (ACHN renal): 1900 nM
TGI (ACHN renal): 19900 nM
GI50 (KM12 colon): 322 nM
TGI (KM12 colon): 11700 nM
GI50 (MOLT-4 leukemia): 610 nM
TGI (MOLT-4 leukemia): 12000 nM
GI50 (CCRF-CEM leukemia): 106 nM
TGI (CCRF-CEM leukemia): 19300 nM
GI50 (SF-295 CNS): 268 nM
TGI (SF-295 CNS): 14200 nM
GI50 (BT-549 breast): 471 nM
TGI (BT-549 breast): 9580 nM
GI50 (T-47D breast): 475 nM
TGI (T-47D breast): 18700 nM
GI50 (MDA-MB-231 breast): 143 nM
TGI (MDA-MB-231 breast): 446 nM
GI50 (SNB-75 CNS): 176 nM
TGI (SNB-75 CNS): 907 nM
GI50 (TK-10 renal): 12100 nM
TGI (TK-10 renal): 25800 nM
GI50 (CAKI-1 renal): 1330 nM
TGI (CAKI-1 renal): 19200 nM
